“And” between values parts separate entries of the source, which are not always exact repeats. Equal values may be shown once. Read-outs that look alike come from different tables or passages of the source. Numbered stars: 1 amine (or outer) side, 2 acyl side, 3 side chain; on linkers, the order of the positions; unused ones are H or OH. Bridge positions count the residues as written; N and C are the ends. Square brackets hold non-standard residues; d marks the D form. Peptide text beside a SMILES is read from it. AMPB(E) = O=C(c1ccc(/N=N/c2ccc(CN[*:1])cc2)cc1)[*:2]; X1 = O=C([C@H](Cc1ccc(/N=N/c2ccccc2)cc1)N[*:1])[*:2]; X2 = O=C(c1ccc(/N=N\c2ccc(CN[*:1])cc2)cc1)[*:2]
Tests used:
hOTR = target: T1, hOTR (Homo sapiens, UniProt P30559); assay: IP-One accumulation assay, agonist function, HEK293 cells expressing hOTR; format: cell-based; settings: for potency difference between the E and Z isomers at OTR: EC50 E vs Z; for agonist character at OTR: IP-One assay
T1 construct: expressed in transfected cells
T1 sequence (P30559 1-389): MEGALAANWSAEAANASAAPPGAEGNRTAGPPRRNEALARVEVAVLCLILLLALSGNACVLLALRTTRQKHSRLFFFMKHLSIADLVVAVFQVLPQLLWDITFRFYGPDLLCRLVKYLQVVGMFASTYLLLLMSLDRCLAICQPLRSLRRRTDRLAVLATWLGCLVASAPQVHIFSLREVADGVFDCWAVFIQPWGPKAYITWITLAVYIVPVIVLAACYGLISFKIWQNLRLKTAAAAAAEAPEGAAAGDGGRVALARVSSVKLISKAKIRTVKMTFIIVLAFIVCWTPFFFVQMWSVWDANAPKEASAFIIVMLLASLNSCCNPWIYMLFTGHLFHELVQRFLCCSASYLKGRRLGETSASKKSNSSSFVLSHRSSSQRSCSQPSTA

[1] = Thermal half-life of the Z-isomer (UV/vis, 96-well plate); format: physicochemical; settings: for t1/2 (thermal half-life, Figure S50): 50 µM in HEPES buffer + 0.25% DMSO, pre-irradiated with 340 nm; for t1/2 (thermal half-life Z to E): preirradiation with 340 nm
Excerpt: All photoprobes were investigated regarding their photophysical properties in aqueous buffer (pH 7.5), mimicking the conditions of the biological functional assays. […] Upon irradiation with 340 nm light for 10 s and monitoring via UV/vis spectroscopy, all compounds could be switched to the Z-isomer, reaching the photostationary state (PSS). Compounds 8–17 containing azobenzene could be switched back to the E-isomer by irradiation at 420 nm for 60 s. Compounds 18 and 19 containing arylazopyrazole could be reverted to the E isomer by using 528 nm light. […] The PSS, when switched to the Z-isomer, was consistently good, with a PSS of 81–95%. […] The thermal half-lives of 10 and 12 were also measured at 37 °C, representing the temperature during the biological assays. As expected, the thermal half-lives decreased, however, the ratio of E and Z isomers remained stable during the incubation period of the biological assays (1 h).
Starting materials and commercial reagents were purchased from Acros, Alfa Aesar, Fisher, Fluka, Fluorochem, Merck (Sigma-Aldrich), TCI and VWR and were used without further purification. Solvents were used in p.a. quality or dried according to common procedures if necessary. All reactions with oxygen- or moisture-sensitive reagents were carried out in glassware that was dried before use by heating under vacuum. Dry nitrogen or argon was used for an inert gas atmosphere. All NMR spectra were measured at room temperature (20 °C) using a Bruker Avance 400 (400 MHz for ^1H and 101 MHz for ^13C) or a Bruker Avance 600 (600 MHz for ^1H and 151 MHz for ^13C) NMR spectrometer. All chemical shifts are reported in δ-scale as parts per million [ppm] (multiplicity, coupling constant J, number of protons) relative to the solvent residual peaks. Coupling constants J are given in hertz [Hz]. Abbreviations used for signal multiplicity: ^1H NMR: s = singlet, d = doublet, dd = doublet of doublets, ddd = doublet of doublets of doublets, dt = doublet of triplets, t = triplet, td = triplet of doublets, q = quartet, and m = multiplet. All mass spectra were recorded on an Agilent Q-TOF 6540 UHD, Finnigan MAT SSQ 710 A, Jeol AccuTOF GCX or ThermoQuest Finnigan TSQ 7000 spectrometer. Absorption spectra were recorded on an UV/vis Agilent Cary 50 spectrometer. Thermal half-lives were measured on a 96-well plate in a Thermo Scientific Multiskan Spectrum. Analytical TLC was performed on silica gel-coated alumina plates (MN precoated TLC-sheets ALUGRAM Xtra SIL G/UV254). Visualization was done using UV light (254 or 366 nm) or staining with ninhydrin solution. Column chromatography was performed on a Biotage Isolera One automated flash purification system with a UV/vis detector. Analytical RP-HPLC was carried out on an Agilent 1220 Infinity LC System (column: P/No 00F-4251-B0, Phenomenex Luna 3 μm C18(2) 100 Å, LC column 150 mm × 2.0 mm). Purification by preparative HPLC was conducted on a preparative HPLC Agilent 1260 Infinity LC System [column: P/No 00G-4253-P0-AX, Phenomenex Luna 10 μm C18(2) 100 Å, LC column 250 mm × 21.2 mm]. The eluent systems were used as specified. After the purification process, solvents were removed by lyophilization. Switching experiments were done with a 340 nm LED (SSC VIOSYS CUD4AF1B, 500 mA, 55 mW), 420 nm LED (ILH-XC01-S410-SC211-WIR200, 800 mA, 440 mW), and 528 nm LED (OSRAM Oslon SSL 80 green, 500 mA, 34 mW). Purity of all photoprobes was >95% as determined by analytical RP-HPLC at 220 nm in DMSO.
1.3.4. Thermal Half-lives
Thermal half-lives were measured in a 96-well plate in a Thermo Scientific Multiskan® Spectrum at 25 °C (and at 37 °C for compounds 10 and 12). The solutions (50 µM in HEPES buffer + 0.25% DMSO) were pre-irradiated with 340 nm. The absorption at 335 nm was measured every 3 h. The data was analyzed using Origin 2021.
0,7 1/2 ExpDec1 Fit of Sheet1 B
Modell ExpDec1 0,35 Modell ExpDec1
0,6 Gleichung y = A 1 *e xp (-x/t1 ) + y0 Gleichung y = A 1 *e xp (-x/t1 ) + y0 […]

[2] = Photostationary state by analytical C18-RP-HPLC; format: physicochemical; settings: for PSS (E → Z): irradiation with 340 nm, HEPES buffer; for PSS (Z → E): irradiation with 420 nm (8–17) or 528 nm (18, 19)
Protocol: All photoprobes were investigated regarding their photophysical properties in aqueous buffer (pH 7.5), mimicking the conditions of the biological functional assays.
1.3.2. Photostationary States
Photostationary states (PSS) were measured on analytical C18-RP-HPLC (flow: 0.3 mL/min, solvent A: H2O (0.05% TFA), solvent B: MeCN). To determine the PSS of the photoswitches, the samples (in 0.1 mM in HEPES buffer + 1% DMSO, pH 7.5) were irradiated first with 340 nm to get the Z-isomer. Afterwards, the sample was irradiated with 420 nm (8-17) or 528 nm (18 and 19), respectively, to get back to the E-isomer. The samples were measured at the isosbestic points.

hV1aR = target: T2, hV1aR (Homo sapiens, UniProt P37288); assay: IP-One accumulation assay, agonist function, HEK293 cells expressing hV1aR; format: cell-based; settings: IP-One, stable HEK293 hV1aR; μM; read-out: V1aR EC50
T2 construct: expressed in transfected cells
T2 sequence (P37288 whole entry): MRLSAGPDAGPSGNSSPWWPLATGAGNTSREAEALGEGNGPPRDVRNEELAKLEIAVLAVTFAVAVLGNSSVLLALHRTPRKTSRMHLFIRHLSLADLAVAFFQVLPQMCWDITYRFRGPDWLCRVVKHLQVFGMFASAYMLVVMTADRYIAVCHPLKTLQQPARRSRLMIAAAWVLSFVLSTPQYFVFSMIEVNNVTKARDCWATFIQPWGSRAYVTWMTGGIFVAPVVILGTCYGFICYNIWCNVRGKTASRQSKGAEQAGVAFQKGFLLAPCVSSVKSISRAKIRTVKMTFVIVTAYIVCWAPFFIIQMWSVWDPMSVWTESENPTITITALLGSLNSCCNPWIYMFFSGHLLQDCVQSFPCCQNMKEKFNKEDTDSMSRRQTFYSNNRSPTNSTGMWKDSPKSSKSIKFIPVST

hV1bR = target: T3, hV1bR (Homo sapiens, UniProt P47901); assay: IP-One accumulation assay, agonist function, HEK293 cells expressing hV1bR; format: cell-based
T3 construct: expressed in transfected cells
T3 sequence (P47901 1-424): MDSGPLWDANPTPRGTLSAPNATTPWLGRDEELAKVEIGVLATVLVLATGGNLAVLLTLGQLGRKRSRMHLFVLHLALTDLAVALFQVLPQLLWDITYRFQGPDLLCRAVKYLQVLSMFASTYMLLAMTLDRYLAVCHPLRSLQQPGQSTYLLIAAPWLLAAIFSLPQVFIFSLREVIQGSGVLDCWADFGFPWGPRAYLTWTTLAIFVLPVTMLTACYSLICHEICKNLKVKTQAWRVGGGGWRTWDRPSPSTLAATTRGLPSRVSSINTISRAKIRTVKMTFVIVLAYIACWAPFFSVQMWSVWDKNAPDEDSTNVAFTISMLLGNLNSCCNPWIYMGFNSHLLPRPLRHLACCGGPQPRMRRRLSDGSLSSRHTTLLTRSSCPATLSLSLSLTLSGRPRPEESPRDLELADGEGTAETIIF

[3] = supplementary CSV, read-out: activity E-isomer OTR
[4] = supplementary CSV, read-out: activity Z-isomer OTR

Molecule | potency difference between the E and Z isomers at OTR (hOTR) | agonist character at OTR (hOTR) | EC50 (hOTR; [3]) [µM] | EC50 (hOTR; [4]) [µM] | t1/2 (thermal half-life, Figure S50) ([1]; 25 °C) [h] | t1/2 (thermal half-life Z to E) ([1]; 25 °C, HEPES buffer pH 7.4) [h] | PSS (E → Z) [2] [%] | PSS (Z → E) [2] [%] | other results
CC[C@H](C)[C@@H]1NC(=O)[C@H](Cc2ccc(O)cc2)NC(=O)[C@@H](N)CSSC[C@@H](C(=O)NCc2ccc(/N=N/c3ccc(C(=O)NCC(N)=O)cc3)cc2)NC(=O)[C@H](CC(N)=O)NC(=O)[C@H](CCC(N)=O)NC1=O [compound 10, [AzbL^7/8]-OT] (H-CYIQNC[AMPB(E)]G-NH2; disulfide 1-6) | 3.1 fold and 3 fold | potent agonists | 0.0946 ± 0.019 | 0.0307 ± 0.004 | 40.8 | 40.8 | 86 | 81 | t1/2 (thermal half-life, Figure S50) ([1]; 37 °C): 24 h; t1/2 (thermal half-life Z to E) ([1]; 37 °C): 24 h
[AzpC(m)^1,Dap^6]-VP [compound 19] | – | – | – | – | 1310 | 1310 | 93 | 87 | –
N=C(N)NCCC[C@H](NC(=O)c1ccc(/N=N\c2ccc(CNC(=O)[C@@H]3CSSC[C@H](N)C(=O)N[C@@H](Cc4ccc(O)cc4)C(=O)N[C@@H](Cc4ccccc4)C(=O)N[C@@H](CCC(N)=O)C(=O)N[C@@H](CC(N)=O)C(=O)N3)cc2)cc1)C(=O)NCC(N)=O [Z-14] (H-CYFQNC[X2]RG-NH2; disulfide 1-6) | – | – | – | – | – | – | – | – | EC50 (hV1aR): > 10 µM; Emax (hV1bR; HEK293, relative to the effect of VP, read-out: V1bR Emax ± SEM): 67 ± 2%; EC50 (hV1bR; IP-One, stable HEK293 hV1bR, read-out: V1bR EC50 ± SEM): 2.37 ± 0.607 µM; V1bR E/Z ratio EC50 (hV1bR; ratio of EC50 of E- and Z-isomer): 2.1
CC[C@H](C)[C@@H]1NC(=O)[C@H](Cc2ccc(O)cc2)NC(=O)[C@@H](N)CSSC[C@@H](C(=O)N[C@@H](Cc2ccc(/N=N/c3ccccc3)cc2)C(=O)N[C@@H](CC(C)C)C(=O)NCC(N)=O)NC(=O)[C@H](CC(N)=O)NC(=O)[C@H](CCC(N)=O)NC1=O [compound 9, [AzbS^7]-OT] (H-CYIQNC[X1]LG-NH2; disulfide 1-6) | 2.5 fold | full agonist | 0.346 ± 0.03 | 0.136 ± 0.006 | 72 | 72 | 93 | – | –
[AzbC(m,m)^1,Dap^6]-VP [compound 17] | – | – | – | – | 686 | 686 | 93 | 88 | –
[AzbC(m,o)^1,Dap^6]-VP [compound 16] | – | – | – | – | 74.4 | 74.4 | 89 | 83 | –
NC(=O)CC[C@@H]1NC(=O)[C@H](Cc2ccccc2)NC(=O)[C@H](Cc2ccc(O)cc2)NC(=O)[C@@H](N)CSSC[C@@H](C(=O)NCc2ccc(/N=N/c3ccc(C(=O)N[C@@H](CCCN=C(N)N)C(=O)NCC(N)=O)cc3)cc2)NC(=O)[C@H](CC(N)=O)NC1=O [compound 14, [AzbL^7]-VP] (H-CYFQNC[AMPB(E)]RG-NH2; disulfide 1-6) | – | – | – | – | – | – | – | – | EC50 (hV1bR; supplementary CSV, read-out: activity Z-isomer V1bR): 2.37 ± 0.607 µM
CC[C@H](C)[C@@H]1NC(=O)[C@H](Cc2ccc(O)cc2)NC(=O)[C@@H](N)CSSC[C@@H](C(=O)NCc2ccc(/N=N/c3ccc(C(=O)N[C@@H](CC(C)C)C(=O)NCC(N)=O)cc3)cc2)NC(=O)[C@H](CC(N)=O)NC(=O)[C@H](CCC(N)=O)NC1=O [compound 11, [AzbL^7]-OT] (H-CYIQNC[AMPB(E)]LG-NH2; disulfide 1-6) | 2 fold | potent agonists | 0.263 ± 0.021 | 0.134 ± 0.017 | 28.8 | 28.8 | 87 | 85 | –
[AzpC(o)^1,Dap^6]-VP [compound 18] | – | – | – | – | 158 | 158 | 94 | 82 | –
CC[C@H](C)[C@@H]1NC(=O)[C@H](Cc2ccc(/N=N/c3ccccc3)cc2)NC(=O)[C@@H](N)CSSC[C@@H](C(=O)N2CCC[C@H]2C(=O)N[C@@H](CC(C)C)C(=O)NCC(N)=O)NC(=O)[C@H](CC(N)=O)NC(=O)[C@H](CCC(N)=O)NC1=O [compound 8, [AzbS^2]-OT] (H-C[X1]IQNCPLG-NH2; disulfide 1-6) | – | partial agonism | 4.5 ± 1.01 | 3.5 ± 1.89 | 132 | 132 | 94 | – | decrease in potency compared to OT at OTR (hOTR; EC50 vs OT): > 1400 fold; Emax (hOTR; HEK293, relative to the effect of OT, read-out: OTR Emax ± SEM): 35 to 45%; EC50 (hOTR; IP-One, both isomers, read-out: EC50 at OTR): 3 to 4 µM

From PMC10641831 (Journal of Medicinal Chemistry, 2023)
